Where two headings read alike, the source gives them in different places.
Legend:
UGTs in HLMs = assay: Inhibition of glucuronidation reaction by chemical inhibitors in HLMs; type: in vitro ADME, human; settings: vs. control without inhibitor
Experimental: To obtain suitable incubation conditions, we first evaluated the linearity of metabolite formation at different times (10-60 min), the UDPGA concentrations (0.5-5 mM), and the microsome protein concentrations in HLMs (0.2-2 mg/mL). The final incubation medium used in the experiment contained MgCl2 (10 mM), microsomes (0.5 mg/mL), 1,4-lactone monohydrate (5 mM), alamethicin ([…]), UDPGA (1 mM), and different concentrations of tectorigenin or […] (1-300 μM) in Tris-HCl buffer (50 mM, pH 7.4). The mixture was incubated at 37 °C for 30 min; then, the reaction was stopped by adding ice-cold methanol. After the mixtures were centrifuged (17,000 rpm, 10 min), and the supernatant was analyzed by HPLC. Michaelis-Menten parameters (Vmax and Km) were determined on the basis of the nonlinear regression of the plot of the substrate concentration vs. rate of metabolite formation. Several well-characterized UGT substrates were used as “inhibitors” to examine the involvement of UGTs in the glucuronidation of tectorigenin or […]. To reduce nonspecific inhibition, the concentration of each inhibitor was determined according to the available literature, namely, 100 μM silibinin for UGT1A1 [31], 50 μM trifluoperazine for UGT1A4 [32], 100 μM 1-naphthol for UGT1A6/1A9 [18, 33], and 500 μM fluconazole for UGT2B7 [34]. A reaction without inhibitors was carried out in parallel as a control.

[1] = Stability experiment under different storage conditions; type: physicochemical; settings: for Stability in Autosampler for 12 h, RE (%): 4 °C; for Stability in Autosampler for 12 h, RE (%) / Stability in Inactivated Metabolic System for 2 h, RE (%) / Stability −80 °C for 7 Days, RE (%): n = 5; for Stability in Inactivated Metabolic System for 2 h, RE (%): approximately 25 °C
Experimental: In the stability experiment, we evaluated the stability of tectorigenin and irigenin, as well as their metabolites, under different conditions. […] Metabolites (M, M1, and M2) were stable in the inactivated metabolic system for 2 h (held constant at approximately 25 °C) and after storage for 7 days (−80 °C), as well as in the pretreated samples placed in the autosampler for 12 h at 4 °C.

UGT1A1 = biological target: T1, UGT1A1 (Homo sapiens, UniProt P22309); assay: Recombinant UGT reaction screening and enzyme kinetics, UGT1A1; type: in vitro ADME; settings: recombinant UGT1A1 screening
T1 construct: purchased BD Biosciences (Woburn, MA, USA)
T1 sequence (P22309 26-533): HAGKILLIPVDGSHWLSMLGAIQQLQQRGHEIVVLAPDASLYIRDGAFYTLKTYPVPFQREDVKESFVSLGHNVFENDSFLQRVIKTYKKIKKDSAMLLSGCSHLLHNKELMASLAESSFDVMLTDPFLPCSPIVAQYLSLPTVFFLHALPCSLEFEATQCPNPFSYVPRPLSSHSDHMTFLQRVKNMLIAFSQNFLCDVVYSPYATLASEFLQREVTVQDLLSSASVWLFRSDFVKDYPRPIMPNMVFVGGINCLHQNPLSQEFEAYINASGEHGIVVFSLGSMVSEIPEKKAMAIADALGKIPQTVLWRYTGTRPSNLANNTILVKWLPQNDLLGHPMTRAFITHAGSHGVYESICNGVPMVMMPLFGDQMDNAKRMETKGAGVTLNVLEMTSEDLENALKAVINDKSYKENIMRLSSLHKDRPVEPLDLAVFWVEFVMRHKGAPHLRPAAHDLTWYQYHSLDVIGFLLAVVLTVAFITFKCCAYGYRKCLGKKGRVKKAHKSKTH
Experimental: (§1) UGT reaction screening of tectorigenin and irigenin was conducted using nine commercially available human UGTs (UGT1A1/1A3/1A4/1A6/1A9/2B4/2B7/2B15/2B17). Furthermore, we studied the enzymatic kinetic characteristics of tectorigenin and irigenin using UGT1A1 and UGT1A9. Six concentrations of tectorigenin and irigenin (1, 3, 10, 30, 100, and 300 μM) were incubated in triplicate in order to obtain the enzyme kinetic characteristics of tectorigenin and irigenin glucuronide.
(§2) For both HLMs and UGTs, metabolic kinetic analysis was performed by fitting the data to the Michaelis-Menten model. The Km and Vmax of enzymes were calculated as follows:(3) V=Vmax×[S]/Km+[S], where [S] is the substrate concentration. All results were shown as the mean ± standard error (SE). Differences among different groups were compared using one-way analysis of variance. A p-value < 0.05 was considered statistically significant.

UGT1A9 = biological target: T2, UGT1A9 (Homo sapiens, UniProt O60656); assay: Recombinant UGT reaction screening and enzyme kinetics, UGT1A9; type: in vitro ADME; settings: recombinant UGT1A9 screening
T2 construct: purchased BD Biosciences (Woburn, MA, USA)
T2 sequence (O60656 26-530): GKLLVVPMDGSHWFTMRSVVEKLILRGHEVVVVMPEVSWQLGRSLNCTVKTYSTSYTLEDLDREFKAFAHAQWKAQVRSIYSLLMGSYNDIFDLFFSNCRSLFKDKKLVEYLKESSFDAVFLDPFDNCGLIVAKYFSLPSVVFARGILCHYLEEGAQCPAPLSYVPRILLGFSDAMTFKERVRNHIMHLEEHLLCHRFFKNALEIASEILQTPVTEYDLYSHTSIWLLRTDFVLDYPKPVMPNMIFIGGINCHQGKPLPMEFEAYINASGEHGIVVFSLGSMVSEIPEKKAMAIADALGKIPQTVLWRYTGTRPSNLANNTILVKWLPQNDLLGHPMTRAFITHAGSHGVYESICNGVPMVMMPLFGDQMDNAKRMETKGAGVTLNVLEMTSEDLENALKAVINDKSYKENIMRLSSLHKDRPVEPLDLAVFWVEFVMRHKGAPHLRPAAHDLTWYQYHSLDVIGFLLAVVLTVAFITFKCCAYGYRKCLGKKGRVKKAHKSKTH
Experimental: as §1, §2

[2] = system: pooled human liver microsomes (HLMs); assay: Glucuronidation kinetics of tectorigenin and irigenin in HLMs; type: in vitro ADME; settings: irigenin glucuronidation in HLMs
Experimental: To obtain suitable incubation conditions, we first evaluated the linearity of metabolite formation at different times (10–60 min), the UDPGA concentrations (0.5–5 mM), and the microsome protein concentrations in HLMs (0.2–2 mg/mL). The final incubation medium used in the experiment contained MgCl2 (10 mM), microsomes (0.5 mg/mL), 1,4-lactone monohydrate (5 mM), alamethicin ([…]), UDPGA (1 mM), and different concentrations of tectorigenin or irigenin (1–300 μM) in Tris-HCl buffer (50 mM, pH 7.4). The mixture was incubated at 37 °C for 30 min; then, the reaction was stopped by adding ice-cold methanol. After the mixtures were centrifuged (17,000 rpm, 10 min), and the supernatant was analyzed by HPLC. Michaelis–Menten parameters (Vmax and Km) were determined on the basis of the nonlinear regression of the plot of the substrate concentration vs. rate of metabolite formation.
as §2

[3] = substrate: COc1cc(-c2coc3cc(O)c(OC)c(O)c3c2=O)cc(O)c1OC; assay: Recombinant UGT reaction screening and enzyme kinetics, UGT1A1; type: in vitro ADME, human; settings: other: irigenin glucuronidation, UGT1A1(M1)
Experimental: as §1, §2

[4] = substrate: COc1c(O)cc2occ(-c3ccc(O)cc3)c(=O)c2c1O; assay: as above; type: in vitro ADME, human; settings: other: tectorigenin glucuronidation (M) by UGT1A1
Experimental: as §1, §2

[5] = substrate: COc1cc(-c2coc3cc(O)c(OC)c(O)c3c2=O)cc(O)c1OC; assay: Recombinant UGT reaction screening and enzyme kinetics, UGT1A9; type: in vitro ADME, human; settings: other: irigenin glucuronidation
Experimental: as §1, §2

[6] = substrate: COc1c(O)cc2occ(-c3ccc(O)cc3)c(=O)c2c1O; assay: as above; type: in vitro ADME, human; settings: other: tectorigenin glucuronidation (M) by UGT1A9
Experimental: as §1, §2

[7] = 100 μM silibinin, 100 μM 1-naphthol

Molecule: Oc1cccc2ccccc12 [1-naphthol]
- Effect of UGT inhibitor on production of M2 from irigenin (UGTs in HLMs; 100 μM 1-naphthol): inhibited
- Effect of UGT inhibitor on tectorigenin glucuronidation (UGTs in HLMs; [7]): significantly inhibited

Molecule: COc1cc(C2Oc3cc([C@H]4Oc5cc(O)cc(O)c5C(=O)[C@@H]4O)ccc3OC2CO)ccc1O (some centres unmarked) [Silibinin]
- Effect of UGT inhibitor on tectorigenin glucuronidation (UGTs in HLMs; [7]): significantly inhibited
- Effect of UGT inhibitor on production of M1 from irigenin (UGTs in HLMs; 100 μM silibinin): significantly inhibited

Molecule: COc1c(O[C@@H]2O[C@H](C(=O)O)[C@@H](O)[C@H](O)[C@H]2O)cc2occ(-c3ccc(O)cc3)c(=O)c2c1O [M, tectorigenin-7-O-glucuronide]
- Stability in Autosampler for 12 h, RE (%) ([1]; High concentration): −5.18%
- Stability in Inactivated Metabolic System for 2 h, RE (%) ([1]; High concentration): 0.59%
- Stability −80 °C for 7 Days, RE (%) ([1]; High concentration): 4.71%
- Stability in Autosampler for 12 h, RE (%) ([1]; Low concentration): −2.13%
- Stability in Inactivated Metabolic System for 2 h, RE (%) ([1]; Low concentration): 0.38%
- Stability −80 °C for 7 Days, RE (%) ([1]; Low concentration): 2.90%
- Stability of metabolites ([1]; inactivated metabolic system 2 h (approx. 25 °C), 7 days at −80 °C, autosampler 12 h at 4 °C): stable

Molecule: COc1cc(-c2coc3cc(O)c(OC)c(O)c3c2=O)cc(O)c1OC [Irigenin, 3’,5,7-trihydroxy-4’,5’,6-trimethoxy isoflavone]
- Activity in glucuronidation of irigenin, M1 formation (UGT1A1): highest activity
- Stability in pretreated samples in the autosampler ([1]; autosampler 12 h at 4 °C): stable
- RE and RSD values in pretreated samples in the autosampler ([1]; autosampler 12 h at 4 °C, printed as below ±5%): < 5%
- Activity in glucuronidation of irigenin, M2 formation (UGT1A9): highest effect
- Vmax for M1 formation ([2]; metabolite M1): 6.09 ± 0.27 nmol/min/mg
- Km ([2]; metabolite M1, read-out: Km for M1 formation): 16.9 ± 2.96 µM
- Vmax for M2 formation ([2]; metabolite M2): 1.16 ± 0.03 nmol/min/mg
- Km ([2]; metabolite M2, read-out: Km for M2 formation): 27.4 ± 2.46 µM

B1: UGT1A1 (Homo sapiens) (protein)
chain: T1 sequence (P22309 26-533)
notes: purchased BD Biosciences (Woburn, MA, USA)
- Km [3]: 20.86 ± 2.04 µM
- Vmax [3]: 0.00522 µmol/min/mg
- Km [4]: 4.064e-05 ± 5.56e-06 M
- Vmax [4]: 0.00901 µmol/min/mg

B2: UGT1A9 (Homo sapiens) (protein)
chain: T2 sequence (O60656 26-530)
notes: as for B1
- Km ([5]; UGT1A9(M1)): 73.88 ± 4.04 µM
- Vmax ([5]; UGT1A9(M1)): 0.00045 µmol/min/mg
- Km ([5]; UGT1A9(M2)): 25.04 ± 2.37 µM
- Vmax ([5]; UGT1A9(M2)): 0.00456 µmol/min/mg
- Km [6]: 1.837e-05 ± 1.16e-06 M
- Vmax [6]: 0.00349 µmol/min/mg
